Data from paper PMC3731320, “Identification of Benzimidazole Diamides as Selective Inhibitors of the Nucleotide-Binding Oligomerization Domain 2 (NOD2) Signaling Pathway” (PLoS ONE, 2013).

System: NOD2
Assay: MDP-stimulated IL-8 release in 293/hNOD2 cells (HTRF)
Format: cell-based, human
Conditions: Homo sapiens; MDP-stimulated IL-8 production assay in 293/hNOD2 cells; Figures 4 and 5; read-out: NOD2 IC50
Method: After 24 hours the amount of IL-8 secreted into the medium was determined by homogeneous time resolved fluorescence (HTRF) assay by the direct addition of a 1:1 mix of europium cryptate and XL665-conjugated anti-IL-8 antibodies according to the manufacturer's instructions (Cisbio).

Row | SMILES | IC50
1 | Cc1ccc(NC(=O)Cn2c(CCNC(=O)c3ccccc3)nc3ccccc32)cc1C [Compound 6, N-(2-(1-(2-(3,4-dimethylphenylamino)-2-oxoethyl)-1H-benzo[d]imidazol-2-yl)ethyl)benzamide] | 2.8 ± 0.1 µM
2 | O=C(Cn1c(CCNC(=O)c2ccccc2)nc2ccccc21)Nc1ccc2ccccc2c1 [Compound 5, N-(2-(1-(2-(naphthalen-2-ylamino)-2-oxoethyl)-1H-benzo[d]imidazol-2-yl)ethyl)benzamide] | 1.6 ± 1.3 µM
3 | O=C(Cn1c(CCNC(=O)c2ccccc2)nc2ccccc21)Nc1ccc2occc2c1 [Compound 7, N-(2-(1-(2-(benzofuran-5-ylamino)-2-oxoethyl)-1H-benzo[d]imidazol-2-yl)ethyl)benzamide] | 3.3 ± 0.9 µM
4 | O=C(Cn1c(CCNC(=O)c2ccccc2)nc2ccccc21)Nc1ccc2[nH]ccc2c1 [Compound 14, N-(2-(1-(2-(1H-indol-5-ylamino)-2-oxoethyl)-1H-benzo[d]imidazol-2-yl)ethyl)benzamide] | > 50 µM
5 | Cc1ccc(C(=O)NCCc2nc3ccccc3n2CC(=O)Nc2ccc3c(c2)CCC3)cc1 [Compound 18, N-(2-(1-(2-((2,3-dihydro-1H-inden-5-yl)amino)-2-oxoethyl)-1H-benzo[d]imidazol-2-yl)ethyl)-4-methylbenzamide] | > 50 µM
6 | O=C(Cn1c(CCNC(=O)c2ccccc2)nc2ccc(Cl)cc21)Nc1ccc2c(c1)CCC2 [Compound 24, N-(2-(6-chloro-1-(2-((2,3-dihydro-1H-inden-5-yl)amino)-2-oxoethyl)-1H-benzo[d]imidazol-2-yl)ethyl)benzamide] | 4.2 ± 0.1 µM
7 | O=C(Cn1c(CCNC(=O)c2ccccc2)nc2ccccc21)Nc1ccc2c(c1)CCN2 [Compound 10, N-(2-(1-(2-(indolin-5-ylamino)-2-oxoethyl)-1H-benzo[d]imidazol-2-yl)ethyl)benzamide] | > 50 µM
8 | CC(C)c1cccc(NC(=O)Cn2c(CCNC(=O)c3ccccc3)nc3ccccc32)c1 [Compound 3, N-(2-(1-(2-((3-isopropylphenyl)amino)-2-oxoethyl)-1H-benzo[d]imidazol-2-yl)ethyl)benzamide] | 0.8 ± 0.5 µM
9 | O=C(Cn1c(CCNC(=O)c2ccc(Cl)c(Cl)c2)nc2ccccc21)Nc1ccc2c(c1)CCC2 [Compound 19, 3,4-dichloro-N-(2-(1-(2-((2,3-dihydro-1H-inden-5-yl)amino)-2-oxoethyl)-1H-benzo[d]imidazol-2-yl)ethyl)benzamide] | > 50 µM
10 | O=C(Cn1c(CCNC(=O)c2ccccc2)nc2ccccc21)Nc1ccc(Oc2ccccc2)cc1 [Compound 13, N-(2-(1-(2-oxo-2-((4-phenoxyphenyl)amino)ethyl)-1H-benzo[d]imidazol-2-yl)ethyl)benzamide] | > 50 µM
11 | Cc1cccc2c1nc(CCNC(=O)c1ccccc1)n2CC(=O)Nc1ccc2c(c1)CCC2 [Compound 28, N-(2-(1-(2-((2,3-dihydro-1H-inden-5-yl)amino)-2-oxoethyl)-4-methyl-1H-benzo[d]imidazol-2-yl)ethyl)benzamide] | > 50 µM
12 | O=C(Cn1c(CCNC(=O)c2ccccc2)nc2ccccc21)Nc1ccc2c(c1)C(O)CC2 (centres unmarked) [Compound 9, N-(2-(1-(2-((3-hydroxy-2,3-dihydro-1H-inden-5-yl)amino)-2-oxoethyl)-1H-benzo[d]imidazol-2-yl)ethyl)benzamide] | 35.2 ± 9.1 µM
13 | O=C(Cn1c(CCNC(=O)c2ccccc2)nc2cc(Cl)ccc21)Nc1ccc2c(c1)CCC2 [Compound 23, N-(2-(5-chloro-1-(2-((2,3-dihydro-1H-inden-5-yl)amino)-2-oxoethyl) -1H-benzo[d]imidazol-2-yl)ethyl)benzamide] | 1.3 ± 0.1 µM
14 | COc1ccc2c(c1)nc(CCNC(=O)c1ccccc1)n2CC(=O)Nc1ccc2c(c1)CCC2 [Compound 26, N-(2-(1-(2-((2,3-dihydro-1H-inden-5-yl)amino)-2-oxoethyl)-5-methoxy-1H-benzo[d]imidazol-2-yl)ethyl)benzamide] | > 50 µM
15 | O=C(Cn1c(CCNC(=O)c2ccccc2)nc2ccccc21)Nc1ccc(Cl)c(Cl)c1 [Compound 8, N-(2-(1-(2-(3,4-dichlorophenylamino)-2-oxoethyl)-1H-benzo[d]imidazol-2-yl)ethyl)benzamide] | 3.3 ± 2.1 µM
16 | O=C(Cn1c(CCNC(=O)c2ccccc2)nc2ccccc21)Nc1ccc2c(c1)NCC2 [Compound 12, N-(2-(1-(2-(indolin-6-ylamino)-2-oxoethyl)-1H-benzo[d]imidazol-2-yl)ethyl)benzamide] | > 50 µM
17 | O=C(Cn1c(CCNC(=O)c2ccccc2)nc2ccccc21)Nc1ccc(OCc2ccccc2)cc1 [Compound 11, N-(2-(1-(2-((4-(benzyloxy)phenyl)amino)-2-oxoethyl)-1H-benzo[d]imidazol-2-yl)ethyl)benzamide] | > 50 µM

Next, values leading:

Row | IC50 | SMILES
18 | 17 ± 2 µM | CN(CCc1nc2ccccc2n1CC(=O)N(C)c1ccc2c(c1)CCC2)C(=O)c1ccccc1 [Compound 30, N-(2-(1-(2-((2,3-dihydro-1H-inden-5-yl)(methyl)amino)-2-oxoethyl)-1H-benzo[d]imidazol-2-yl)ethyl)-N-methylbenzamide]
19 | 0.3 ± 0.01 µM | CC(C)c1cccc(NC(=O)Cn2c(CCN(C)C(=O)c3ccccc3)nc3ccccc32)c1 [Compound 33, N-(2-(1-(2-((3-isopropylphenyl)amino)-2-oxoethyl)-1H-benzo[d]imidazol-2-yl)ethyl)-N-methylbenzamide]
20 | 0.6 ± 0.1 µM | CN(CCc1nc2ccccc2n1CC(=O)Nc1ccc2sccc2c1)C(=O)c1ccccc1 [Compound 34, N-(2-(1-(2-(benzo[b]thiophen-5-ylamino)-2-oxoethyl)-1H-benzo[d]imidazol-2-yl)ethyl)-N-methylbenzamide]
21 | 0.9 ± 0.2 µM | CN(CCc1nc2ccccc2n1CC(=O)Nc1ccc(Cl)c(Cl)c1)C(=O)c1ccccc1 [Compound 35, N-(2-(1-(2-((3,4-dichlorophenyl)amino)-2-oxoethyl)-1H-benzo[d]imidazol-2-yl)ethyl)-N-methylbenzamide]
22 | 4.6 ± 1.9 µM | Cc1ccc2c(c1)nc(CCNC(=O)c1ccccc1)n2CC(=O)Nc1ccc2c(c1)CCC2 [Compound 25, N-(2-(1-(2-((2,3-dihydro-1H-inden-5-yl)amino)-2-oxoethyl)-5-methyl-1H-benzo[d]imidazol-2-yl)ethyl)benzamide]
23 | 1.6 ± 0.1 µM | Cc1ccc(NC(=O)Cn2c(CCN(C)C(=O)c3ccccc3)nc3ccccc32)cc1C [Compound 37, N-(2-(1-(2-((3,4-dimethylphenyl)amino)-2-oxoethyl)-1H-benzo[d]imidazol-2-yl)ethyl)-N-methylbenzamide]
24 | 3.4 ± 0.2 µM | O=C(Cn1c(CCNC(=O)c2cccc3ccccc23)nc2ccccc21)Nc1ccc2c(c1)CCC2 [Compound 15, N-(2-(1-(2-((2,3-dihydro-1H-inden-5-yl)amino)-2-oxoethyl)-1H-benzo[d]imidazol-2-yl)ethyl)-1-naphthamide]
25 | 4.7 ± 0.5 µM | Cc1ccccc1C(=O)NCCc1nc2ccccc2n1CC(=O)Nc1ccc2c(c1)CCC2 [Compound 17, N-(2-(1-(2-((2,3-dihydro-1H-inden-5-yl)amino)-2-oxoethyl)-1H-benzo[d]imidazol-2-yl)ethyl)-2-methylbenzamide]
26 | 3.8 ± 1.4 µM | O=C(Cn1c(CCNC(=O)c2ccccc2Cl)nc2ccccc21)Nc1ccc2c(c1)CCC2 [Compound 16, 2-chloro-N-(2-(1-(2-((2,3-dihydro-1H-inden-5-yl)amino)-2-oxoethyl)-1H-benzo[d]imidazol-2-yl)ethyl)benzamide]
